System: MC3T3-E1 cells
Test: ALP staining of MC3T3-E1 cells
Assay type: cell-based, mouse
Conditions: MC3T3-E1, 10 μg/ml and 50 μg/ml, 14 days
Description: The mouse osteoblast line, MC3T3-E1 cells were seeded on a 24-well plate at 4×10^4 cells/well, and then incubated overnight. After the exchange with a medium containing 50 μg/ml ascorbic acid+10 mM b-glycerophosphate, the cells were treated with each peptide at concentrations of 10 μg/ml and 50 μg/ml, and incubated for 14 days to induce differentiation. Here, the medium exchange every three days and the treatment with the peptide were repeated (positive control: BMP2 […]). The incubation-completed plate well was washed two times with PBS, and then the cells were immobilized with an immobilization buffer, in which acetone, 37% formaldehyde, and citric acid solution were mixed, for 30 seconds. The following staining was carried out using the leukocyte alkaline phosphatase staining kit (SIGMA).
The cells were treated with a mixture, in which an FBB-alkaline solution was mixed with a sodium nitrite solution at 1:1, for 2 minutes, and then treated with a buffer composed of distilled water and naphthol AS-BI alkaline solution, followed by color development in an incubator at 37° C. for 1 hour.

NH2-Ala-Cys-Arg-Ser-Ala-Ile-Gly-Arg-Pro-Cys-COOH (H-ACRSAIGRPC-OH; cysteine pairing not given here) [SEQ ID NO: 1]
ALP expression (ALP staining): increased
